One may read the melting point as the temperature, or range, at which the solid turns liquid. The term CC50 denotes the concentration that lowers cell viability or growth by half. High values mean lower toxicity to the cells, low ones greater toxicity to the cells. Usually IC50 stands for the midpoint of a concentration-inhibition curve.

Structures can show the parent of a compound that is named as a salt. Where two headings read alike, the source gives them in different places. A value given as a limit tells only on which side of the number the result lay.

A short description of data set [1]: Cytotoxicity evaluation, MTT assay. The following applies: human, HepG2 cells (hepatocarcinoma cell line, ATCC HB-8065); HepG2, 72 h incubation, mean ± SD of three independent experiments. It counts as cell-based, human. How it is done:
These assays were performed toward the human HepG2 cell line (HepG2 CC50). […] These cells express many of the hepatocyte-specific metabolic enzymes, thus enabling the cytotoxicity of tested product metabolites to be evaluated. […] Duplicate assays were performed for each sample. Each plate-well was then microscope-examined for detecting possible precipitate formation before the medium was aspirated from the wells. 100 μL of MTT solution (0.5 mg/mL in medium without FCS) were then added to each well. […] After this time, the MTT solution was removed and DMSO (100 μL) was added to dissolve the resulting blue formazan crystals. Plates were shaken vigorously (300 rpm) for 5 minutes. The absorbance was measured at 570 nm with 630 nm as reference wavelength spectrophotometer using a BIO-TEK ELx808 Absorbance Microplate Reader. DMSO was used as blank and doxorubicin (Sigma Aldrich) as positive control. Cell viability was calculated as percentage of control (cells incubated without compound). The 50% cytotoxic concentration was determined from the dose-response curve by using the TableCurve 2D V5.0 software (Systat Software, San Jose, CA).

Data set [2] deals with P. falciparum CQ-resistant strain W2. The data set can be described thus: In vitro antiplasmodial activity, SYBR Green I fluorescence-based method, W2 strain. It counts as cell-based, Plasmodium falciparum. The following applies: for IC50: Plasmodium falciparum, chloroquine-resistant strain W2, 48 h incubation, read-out: P. falciparum strains IC50 values, W2; for Selectivity Index HepG2/W2: ratio CC50 HepG2 / IC50 W2. How it is done: (§1) The in vitro antiplasmodial activities were tested over concentrations ranging from 39 nM to 40 μM against culture-adapted Plasmodium falciparum reference strains 3D7 and W2. […] The parasites were cultivated in RPMI medium (Sigma-Aldrich, Lyon, France) supplemented with 0.5% Albumax I (Life Technologies corporation, Paisley, United Kingdom), hypoxanthine (Sigma-Aldrich), gentamicin (Sigma-Aldrich), and human erythrocytes and were incubated at 37 °C in a candle jar, as described previously. The P. falciparum drug susceptibility test was carried out in 96-well flat bottom sterile plates under a final volume of 250 μL. After a 48 h incubation with the drugs, quantities of DNA in treated and control cultures of parasites in human erythrocytes were compared according to the SYBR Green I (Sigma-Aldrich) fluorescence-based method[38]^,[39]. Briefly, after incubation, plates were frozen at -20 °C until use. They were then left to thaw for 2 h at room temperature and 100 μL of the homogenized culture were transferred to 96-well flat bottom sterile black plates (Nunc Inc) already containing 100 μL of the SYBR Green I lysis buffer (2xSYBR Green, 20 mM Tris base pH 7.5, 5 mM EDTA, 0.008% w/v saponin, 0.08% w/v Triton X-100). […] Plates were incubated for 1 h at room temperature and then read on a fluorescence plate reader (Tecan, Austria) using excitation and emission wavelengths of 485 and 535 nm, respectively.

The subject of data set [3] is P. falciparum CQ-sensitive strain 3D7. Kind of data set: In vitro antiplasmodial activity, SYBR Green I fluorescence-based method, 3D7 strain. The data set is classed as cell-based, Plasmodium falciparum. The following applies: for IC50: chloroquine-sensitive strain 3D7, 48 h incubation, read-out: P. falciparum strains IC50 values, 3D7; for Selectivity Index HepG2/3D7: ratio CC50 HepG2 / IC50 3D7. How it is done: as §1

For data set [4], the system named is L. donovani (MHOM/IN/00/DEVI) promastigotes. The data set can be described thus: In vitro antileishmanial activity on promastigotes, MTT assay. The data set is classed as cell-based. The following applies: Leishmania donovani, 72 h incubation, mean ± SD of three independent experiments. How it is done: L. donovani (MHOM/IN/00/DEVI) used in this study was provided by the CNR Leishmania (Montpellier, France). The effects of the tested compounds on the growth of L. donovani (MHOM/IN/00/DEVI)promastigotes were assessed by MTT assay[41] .Briefly, promastigotes in log-phase in Schneider′s medium supplemented with 20% fetal calf serum (FCS), 2 mM L-glutamine and antibiotics (100 U/mL penicillin and 100 μg/mL streptomycin), were incubated at an average density of 10^6 parasites/mL in sterile 96-well plates with various concentrations of compounds dissolved in DMSO (final concentration less than 0.5% v/v), in duplicate. Appropriate controls treated by DMSO and pentamidine or amphotericin B (reference drugs purchased from Sigma-Aldrich) were added to each set of experiments. After a 72 h incubation period at 27 °C, parasite metabolic activity was determined. Each plate-well was then microscope-examined for detecting possible precipitate formation. 20 μL of MTT 3–(4,5-dimethylthiazol-2-yl)-2,5-diphenyltetrazolium bromide) solution (5 mg/mL) were added to each well followed by incubation for another 4 h. The enzyme reaction was then stopped by addition of 100 μL of 50% isopropanol – 10% sodium dodecyl sulfate[42] .Plates were shaken vigorously (300 rpm) for 10 minutes and the absorbance measured in a plate reader at 570 nm in a BIO-TEK ELx808 Absorbance Microplate Reader. […] IC50 were calculated by non-linear regression analysis processed on doseresponse curves, using TableCurve 2D V5.0 software. IC50 values represent the mean value calculated from three independent experiments.
Background: Tetrazolium assays rely on reduction of a dye to a coloured formazan, in cell work by metabolically active cells.

[5] abbreviates: Plasmodium falciparum, 3D7, 48 h.

`CN(CCCNCc1ccc(-c2nc3ccccc3n3cccc23)cc1)CCCNCc1ccc(-c2nc3ccccc3n3cccc23)cc1` (as salt: ammonium) [1b, Bis{N-[4-(pyrrolo[1,2-a]quinoxalin-4-yl)benzyl]-3-aminopropyl}methylamine] yielded a melting point of 245 to 248 °C.
`CCOc1ccn2c1c(-c1ccc(CNCCCN3CCN(CCCNCc4ccc(-c5nc6ccccc6n6ccc(OCC)c56)cc4)CC3)cc1)nc1ccccc12` (as salt: ammonium) [1k, Bis{N-[4–(3-ethoxypyrrolo[1,2-a]quinoxalin-4-yl)benzyl]-3-aminopropyl}piperazine] had a melting point of 218 to 220 °C.
Compound `COc1ccc2c(c1)nc(-c1ccc(CNCCCN(CCCNCc3ccc(-c4nc5cc(OC)ccc5n5cccc45)cc3)CCCNCc3ccc(-c4nc5cc(OC)ccc5n5cccc45)cc3)cc1)c1cccn12` (as salt: ammonium) [1s, Tris{N-[4–(7-methoxypyrrolo[1,2-a]quinoxalin-4-yl)benzyl]-3-aminopropyl}amine] came in with a melting point of 192 to 194 °C.
Compound `c1ccc2c(c1)nc(-c1ccc(CNCCCN3CCN(CCCNCc4ccc(-c5nc6ccccc6n6cccc56)cc4)CC3)cc1)c1cccn12` (as salt: ammonium) [1c, Bis{N-[4-(pyrrolo[1,2-a]quinoxalin-4-yl)benzyl]-3-aminopropyl}piperazine] yielded a melting point greater than 260 °C.
As for `COc1cccc2nc(-c3ccc(CNCCCN(C)CCCNCc4ccc(-c5nc6cccc(OC)c6n6cccc56)cc4)cc3)c3cccn3c12` (as salt: ammonium) [1h, Bis{N-[4–(9-methoxypyrrolo[1,2-a]quinoxalin-4-yl)benzyl]-3-aminopropyl}methylamine], the melting point lay in the range of 160 to 162 °C.
For the compound `c1ccc2c(c1)cc1c(-c3ccc(CNCCCN4CCN(CCCNCc5ccc(-c6nc7ccccc7n7c6cc6ccccc67)cc5)CC4)cc3)nc3ccccc3n12` (as salt: ammonium) [1q, Bis{N-[4-(indolo[1,2-a]quinoxalin-6-yl)benzyl]-3-aminopropyl}piperazine], the melting point was greater than 260 °C.
Still for that read-out and setting: then `COc1ccc2nc(-c3cccc(CNCCOCCOCCOCCNCc4cccc(-c5nc6ccc(OC)cc6n6cccc56)c4)c3)c3cccn3c2c1` (as salt: ammonium) [1u, N,N′-[oxybis(2,1-ethanediyloxy-2,1-ethanediyl)]bis-3–(8-methoxypyrrolo[1,2-a]quinoxalin-4-yl)benzylamine], with 141 to 144 °C.
`CN(CCCNCc1cccc(-c2nc3ccccc3n3cccc23)c1)CCCNCc1cccc(-c2nc3ccccc3n3cccc23)c1` [1m, Bis{N-[3-(pyrrolo[1,2-a]quinoxalin-4-yl)benzyl]-3-aminopropyl}methylamine] displayed a CC50 at 72 h in data set [1] of 1940 ± 1000 nM. The IC50 amounted to 120 ± 10 nM in data set [2], 1070 ± 160 nM in data set [3] (setting [5]) and 2800 ± 100 nM in data set [4]. For the same compound, the “Selectivity Index HepG2/W2” value in data set [2] is 16.17. In data set [3], the “Selectivity Index HepG2/3D7” value is 1.81.
On to `COc1ccc2c(c1)nc(-c1ccc(CNCCCN(C)CCCNCc3ccc(-c4nc5cc(OC)ccc5n5cccc45)cc3)cc1)c1cccn12` [1d, Bis{N-[4–(7-methoxypyrrolo[1,2-a]quinoxalin-4-yl)benzyl]-3-aminopropyl}methylamine], for which, in data set [1], it took 2570 ± 700 nM to reach half-maximal cytotoxicity (CC50 at 72 h). For the same compound, the IC50 in data set [2] came to 340 ± 40 nM; in data set [3] (setting [5]) it was 4140 ± 30 nM; in data set [4], 3890 ± 300 nM. The “Selectivity Index HepG2/W2” value in data set [2] was determined as 7.56. In data set [3], the “Selectivity Index HepG2/3D7” value came to 0.62.
For the compound `CCOc1ccn2c1c(-c1ccc(CNCCCN3CCN(CCCNCc4ccc(-c5nc6ccccc6n6ccc(OCC)c56)cc4)CC3)cc1)nc1ccccc12` [1k, Bis{N-[4–(3-ethoxypyrrolo[1,2-a]quinoxalin-4-yl)benzyl]-3-aminopropyl}piperazine], the midpoint of cytotoxicity in data set [1], the CC50 at 72 h, lay at 1480 ± 500 nM. Moreover, the IC50 was 90 ± 10 nM in data set [2], 190 ± 10 nM in data set [3] (setting [5]) and no less than 10000 nM in data set [4]. Further, in data set [2], the “Selectivity Index HepG2/W2” value is listed as 16.44. For the same compound, the “Selectivity Index HepG2/3D7” value in data set [3] is on record as 7.79.
Compound `COc1ccc2nc(-c3cccc(CNCCCN4CCN(CCCNCc5cccc(-c6nc7ccc(OC)cc7n7cccc67)c5)CC4)c3)c3cccn3c2c1` (as salt: ammonium) [1p, Bis{N-[3–(8-methoxypyrrolo[1,2-a]quinoxalin-4-yl)benzyl]-3-aminopropyl}piperazine] yielded a melting point of 234 to 237 °C.
Consider `CCOc1ccn2c1c(-c1ccc(CNCCCN(C)CCCNCc3ccc(-c4nc5ccccc5n5ccc(OCC)c45)cc3)cc1)nc1ccccc12` (as salt: ammonium) [1j, Bis{N-[4–(3-ethoxypyrrolo[1,2-a]quinoxalin-4-yl)benzyl]-3-aminopropyl}methylamine], for which the melting point lay in the range of 192 to 195 °C.
For the compound `c1ccc2c(c1)nc(-c1ccc(CNCCCN3CCN(CCCNCc4ccc(-c5nc6ccccc6n6cccc56)cc4)CC3)cc1)c1cccn12` [1c, Bis{N-[4-(pyrrolo[1,2-a]quinoxalin-4-yl)benzyl]-3-aminopropyl}piperazine], the CC50 at 72 h in data set [1] stood at 1250 ± 300 nM. Besides, the IC50 in data set [2] came out at 3400 ± 740 nM; in data set [3] (setting [5]) it was 800 ± 120 nM; in data set [4] it was 1140 ± 200 nM. Further, in data set [2], the “Selectivity Index HepG2/W2” value is on record as 0.37. The “Selectivity Index HepG2/3D7” value in data set [3] is recorded as 1.56.
Compound `COc1ccc2nc(-c3ccc(CNCCCN(C)CCCNCc4ccc(-c5nc6ccc(OC)cc6n6cccc56)cc4)cc3)c3cccn3c2c1` (as salt: ammonium) [1f, Bis{N-[4–(8-methoxypyrrolo[1,2-a]quinoxalin-4-yl)benzyl]-3-aminopropyl}methylamine] yielded a melting point of 240 to 242 °C.
For the compound `COc1ccc2nc(-c3cccc(CNCCCN(CCCNCc4cccc(-c5nc6ccc(OC)cc6n6cccc56)c4)CCCNCc4cccc(-c5nc6ccc(OC)cc6n6cccc56)c4)c3)c3cccn3c2c1` [1t, Tris{N-[3–(8-methoxypyrrolo[1,2-a]quinoxalin-4-yl)benzyl]-3-aminopropyl}amine], half-maximal cytotoxicity in data set [1] (CC50 at 72 h) was put at 1720 ± 600 nM. Also, the IC50 in data set [2] is 190 ± 20 nM; in data set [3] (setting [5]), 240 ± 30 nM; in data set [4], no less than 10000 nM. Besides, the “Selectivity Index HepG2/W2” value in data set [2] is 9.05. Also, the “Selectivity Index HepG2/3D7” value in data set [3] is recorded as 7.17.
In turn, `COc1ccc2nc(-c3cccc(CNCCOCCOCCOCCNCc4cccc(-c5nc6ccc(OC)cc6n6cccc56)c4)c3)c3cccn3c2c1` [1u, N,N′-[oxybis(2,1-ethanediyloxy-2,1-ethanediyl)]bis-3–(8-methoxypyrrolo[1,2-a]quinoxalin-4-yl)benzylamine] registered a CC50 at 72 h in data set [1] of 1540 ± 700 nM. Besides, the IC50 was 250 ± 80 nM in data set [2], roughly 80 nM in data set [3] (setting [5]), 76 ± 9 nM in data set [3] and no less than 10000 nM in data set [4]. The “Selectivity Index HepG2/W2” value in data set [2] is recorded as 6.16. In addition, the “Selectivity Index HepG2/3D7” value in data set [3] was 20.26.

These data come from paper PMC6445168, “Design, synthesis and antimalarial activity of novel bis{N-[(pyrrolo[1,2-a]quinoxalin-4-yl)benzyl]-3-aminopropyl}amine derivatives” (Journal of Enzyme Inhibition and Medicinal Chemistry, 2017).
